This is an account of results in patent publication US20250099448A1, “HETEROCYCLIC COMPOUNDS” (Hoffmann-La Roche Inc., priority 2022, published 2025).

SMILES strings stand for the structures. pIC50: −log10 of the molar value.

For this test, the target named is T1, MAGL protein (Homo sapiens, UniProt Q99685).
T1 sequence (Q99685 1-303): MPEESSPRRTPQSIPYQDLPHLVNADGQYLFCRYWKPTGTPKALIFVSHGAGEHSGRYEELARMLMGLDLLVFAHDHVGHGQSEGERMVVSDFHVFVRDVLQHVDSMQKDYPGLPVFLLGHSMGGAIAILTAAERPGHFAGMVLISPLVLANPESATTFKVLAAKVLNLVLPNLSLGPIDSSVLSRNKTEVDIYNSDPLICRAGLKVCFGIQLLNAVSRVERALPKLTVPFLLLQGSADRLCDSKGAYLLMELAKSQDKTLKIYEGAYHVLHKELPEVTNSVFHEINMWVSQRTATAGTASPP
In words: 2-AG assay: MAGL inhibitory activity by hydrolysis of 2-arachidonoylglycerol to arachidonic acid, followed by mass spectrometry. The test is classed as biochemical. The following applies: 8 μM 2-arachidonoylglycerol, 15 min preincubation, 30 min reaction at RT, RapidFire MS readout. The method in brief: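 Activity was measured by RapidFire SPE–triple-quad MS as the ratio of arachidonic acid to d8-arachidonic acid after 2-AG hydrolysis (8 μM substrate, 30 min, RT, acetonitrile quench). Compounds, tested from 12.5 μM down to […], were first preincubated 15 min with MAGL in TRIS/EDTA/Tween-20 buffer containing 2.5% DMSO.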
As for `O=C(N1CC(OCc2ccc(C(F)(F)F)cc2F)C1)N1CC2(CC(c3nnc(C4(O)CC4)[nH]3)C2)C1` [compound 324], the pIC50 (usually −log10 of the IC50, conventionally taken in molar units) is 7.84.

Consider `O=C(N1CC(Oc2ccc(Cl)c(C3CC3)c2)C1)N1CC2(CC(c3nnc(C4(O)CC4)[nH]3)C2)C1` [compound 325], for which the pIC50 was 7.83.

`O=C(N1CC(OCC2CCC(F)(F)CC2)C1)N1CC2(CC(c3nnc(C4CC4)[nH]3)C2)C1` [compound 326] showed a pIC50 of 7.64.

`O=C(N1CC(OCC2CC3C(C2)C3(F)F)C1)N1CC2(CC(c3nnc(C4CC4)[nH]3)C2)C1` (centres unmarked) [compound 327] had a pIC50 of 7.60.

In turn, `O=C(N1CC(Oc2cnc(Cl)c(C3CC3)c2)C1)N1CC2(CC(c3nnc(C4CC4)[nH]3)C2)C1` [compound 328] showed a negative-log IC50 (pIC50) of 7.45.

As to `O=C(N1CC(OCc2cncc(C(F)(F)F)c2)C1)N1CC2(CC(c3nnc(C4CC4)[nH]3)C2)C1` [compound 329], the pIC50 was 7.42.

With `CS(=O)(=O)c1ccc(COC2CN(C(=O)N3CC4(CC(c5nnc(C6CC6)[nH]5)C4)C3)C2)c(F)c1` [compound 330], the pIC50 was 7.22.

In turn, `O=C(N1CC(OCC2(C(F)(F)F)CC2)C1)N1CC2(CC(c3nnc(C4CC4)[nH]3)C2)C1` [compound 331] showed a pIC50 of 6.96.

As to `O=C(N1CC(OCc2ccc(C(F)(F)F)nc2)C1)N1CC2(CC(c3nnc(C4CC4)[nH]3)C2)C1` [compound 332], the pIC50 was 6.80.

`CS(=O)(=O)c1ccc(COC2CN(C(=O)N3CC4(CC(c5nnc(C6CC6)[nH]5)C4)C3)C2)cc1` [compound 333] showed a pIC50 of 6.80.

As for `CS(=O)(=O)c1cccc(COC2CN(C(=O)N3CC4(CC(c5nnc(C6CC6)[nH]5)C4)C3)C2)c1` [compound 334], the pIC50 was 6.57.

In turn, `CS(=O)(=O)c1ccccc1COC1CN(C(=O)N2CC3(CC(c4nnc(C5CC5)[nH]4)C3)C2)C1` [compound 335] showed a negative logarithm of the IC50 (pIC50) of 6.33.

`O=C(N1CC(OCc2ccc(C(F)(F)F)cc2F)C1)N1CC2(CC(c3nnc(C(O)C(F)(F)F)[nH]3)C2)C1` (centres unmarked) [compound 336] showed a pIC50 of 7.25.

The compound `CS(=O)(=O)c1cc(Cl)ccc1-c1ccc(C2CN(C(=O)N3CC4(CC(c5nnc(C6CC6)[nH]5)C4)C3)C2)cc1` [compound 337] showed a pIC50 of 10.15.

Turning to `CS(=O)(=O)c1ccc(-c2ccc(C3CN(C(=O)N4CC5(CC(c6nnc(C7CC7)[nH]6)C5)C4)C3)cc2)c(Cl)c1` [compound 338], the pIC50 is 10.05.

`COC(=O)c1ccccc1-c1ccc(C2CN(C(=O)N3CC4(CC(c5nnc(C6CC6)[nH]5)C4)C3)C2)cc1` [compound 339] showed a pIC50 of 9.80.

For the compound `NC(=O)c1ccccc1-c1ccc(C2CN(C(=O)N3CC4(CC(c5nnc(C6CC6)[nH]5)C4)C3)C2)cc1` [compound 340], the pIC50 was 8.96.

On to `O=C(N1CC(C23CC(CNC4(C(F)(F)F)CC4)(C2)C3)C1)N1CC2(CC(c3nnc(C4CC4)[nH]3)C2)C1` [compound 341], for which the pIC50 is 9.92.

In the case of `O=C(N1CC(C23CC(NCC4(C(F)(F)F)CC4)(C2)C3)C1)N1CC2(CC(c3nnc(C4CC4)[nH]3)C2)C1` [compound 342], the pIC50 is 9.31.

Take `CC(C)(C)Cc1nnc(C23CC(C4CN(C(=O)N5CC6(CC(c7nnc(C8CC8)[nH]7)C6)C5)C4)(C2)C3)o1` [compound 343]: the pIC50 is 9.01.

Turning to `O=C(N1CC(C23CC(c4nnc(CC(F)(F)F)o4)(C2)C3)C1)N1CC2(CC(c3nnc(C4CC4)[nH]3)C2)C1` [compound 344], the pIC50 was 8.12.

`O=C(N1CC(C23CC(c4nnc(C5CC5)o4)(C2)C3)C1)N1CC2(CC(c3nnc(C4CC4)[nH]3)C2)C1` [compound 345] had a pIC50 of 8.04.

Take `O=C(N1CC2(CCC(Oc3cc(Cl)ccc3Cl)CC2)C1)N1CC2(CC(c3nnc(C4(O)CC4)[nH]3)C2)C1` [compound 346]: the pIC50 is 9.89.

On to `O=C(N1CC(COc2ccc(C(F)(F)F)cc2F)C1)N1CC2(CC(c3nnc(C4CC4)[nH]3)C2)C1` [compound 347], for which the pIC50 is 9.51.

`O=C(N1CC2(CCC(NS(=O)(=O)c3cccc(OC(F)(F)F)c3)CC2)C1)N1CC2(CC(c3nnc(C4CC4)[nH]3)C2)C1` [compound 348] gave a pIC50 of 9.20.

Turning to `O=C(N1CC(CCc2ccc(C(F)(F)F)cc2F)C1)N1CC2(CC(c3nc(C4(O)CC4)n[nH]3)C2)C1` [compound 349], the pIC50 is 8.61.

Take `CS(=O)(=O)c1ccc(Cl)cc1OC1CCC2(CC1)CN(C(=O)N1CC3(CC(c4nnc(C5CC5)[nH]4)C3)C1)C2` [compound 350]: the pIC50 was 8.46.

Consider `O=C(N1CC2(CCC(Nc3cnc(C(F)(F)F)cn3)CC2)C1)N1CC2(CC(c3nnc(C4CC4)[nH]3)C2)C1` [compound 351], for which the pIC50 was 8.44.

`O=C(N1CC2(CC(CNCC3(C(F)(F)F)CC3)C2)C1)N1CC2(CC(c3nnc(C4CC4)[nH]3)C2)C1` [compound 352] gave a pIC50 of 8.40.

For the compound `O=C(N1CC(COc2ccc(F)cc2Cl)C1)N1CC2(CC(c3nnc(C4CC4)[nH]3)C2)C1` [compound 353], the pIC50 is 8.29.

As to `O=C(N1CC2(CC(CNC3(C(F)(F)F)COC3)C2)C1)N1CC2(CC(c3nnc(C4CC4)[nH]3)C2)C1` [compound 354], the pIC50 is 8.27.

Take `CS(=O)(=O)c1cc(F)ccc1OC1CCC2(CC1)CN(C(=O)N1CC3(CC(c4nnc(C5CC5)[nH]4)C3)C1)C2` [compound 355]: the pIC50 is 8.05.

The compound `O=C(N1CC2(CC(c3nnc(C4CC4)[nH]3)C2)C1)N1CC2(CC(S(=O)(=O)c3ccc(F)cc3Cl)C2)C1` [compound 356] had a pIC50 of 7.93.

With `CC1(NCC2CC3(C2)CN(C(=O)N2CC4(CC(c5nnc(C6CC6)[nH]5)C4)C2)C3)CS(=O)(=O)C1` [compound 357], the pIC50 was 7.59.

Consider `O=C(N1CC2(CCC(NS(=O)(=O)C3CCC(F)(F)CC3)CC2)C1)N1CC2(CC(c3nnc(C4CC4)[nH]3)C2)C1` [compound 358], for which the pIC50 was 7.58.

`O=C(NCC1(C(F)(F)F)CC1)C1CC2(C1)CN(C(=O)N1CC3(CC(c4nnc(C5CC5)[nH]4)C3)C1)C2` [compound 359] gave a pIC50 of 7.55.

`O=C(N1CC(C2CN(Cc3ccc(C(F)(F)F)cc3)C2)C1)N1CC2(CC(c3nnc(C4CC4)[nH]3)C2)C1` [compound 360]: the pIC50 was 7.49.

For the compound `O=C(N1CC(Cc2ccc(Cl)cc2)C1)N1CC2(CC(c3nnc(C4(O)CC4)[nH]3)C2)C1` [compound 361], the negative-log IC50 (pIC50) is 7.34.

With `NC(=O)C(c1ccc(F)cc1)C1CCN(C(=O)N2CC3(CC(c4nnc(C5CC5)[nH]4)C3)C2)CC1` (centres unmarked) [compound 362], the negative-log IC50 (pIC50) is 6.97.

For `O=C(N1C[C@H]2CN(Cc3ccccc3)C[C@H]2C1)N1CC2(CC(c3nnc(C4CC4)[nH]3)C2)C1` [compound 363], the pIC50 is 6.61.

With `O=C(N1CC2(CC(CNC3CS(=O)(=O)C3)C2)C1)N1CC2(CC(c3nnc(C4CC4)[nH]3)C2)C1` [compound 364], the pIC50 is 6.42.

`CC(C)(C)n1nnc(C2(c3ccc(C4CN(C(=O)N5CC6(CC(c7nnc(C8CC8)[nH]7)C6)C5)C4)cc3)CC2)n1` [compound 365] had a negative-log IC50 (pIC50) of 10.22.

Turning to `CC(C)(Oc1ccc(C2CN(C(=O)N3CC4(CC(c5nnc(C6CC6)[nH]5)C4)C3)C2)cc1)C(F)(F)F` [compound 366], the pIC50 is 10.10.

`O=C(N1CC(c2ccc(Oc3ccccc3Cl)nc2)C1)N1CC2(CC(c3nnc(C4CC4)[nH]3)C2)C1` [compound 367] had a pIC50 of 9.82.
